# Experimental data: PubChem BioAssay (NCI)
#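 Five concentrations, 48 hours, 96-well plates. Abbreviation: GI50, concentration required for 50% inhibition of growth. The concentration for full growth arrest is given as TGI.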
# Key:
# Experiment in all cases: NCI anticancer screen, dose series, 48 h
# SF-539 CNS = tested on: SF-539 CNS
# NCI-H522 lung = tested on: NCI-H522 lung
# A498 renal = tested on: A498 renal
# EKVX NSCLC = tested on: EKVX NSCLC
# MCF7 breast = tested on: MCF7 breast
# NCI-H226 lung = tested on: NCI-H226 lung
# SNB-75 CNS = tested on: SNB-75 CNS
# U251 CNS = tested on: U251 CNS
# SF-295 CNS = tested on: SF-295 CNS
# OVCAR-5 ovarian = tested on: OVCAR-5 ovarian
# UACC-62 melanoma = tested on: UACC-62 melanoma
# IGROV1 ovarian = tested on: IGROV1 ovarian
# SK-MEL-5 melanoma = tested on: SK-MEL-5 melanoma
# RXF 393 renal = tested on: RXF 393 renal
# SN12C renal = tested on: SN12C renal
# OVCAR-4 ovarian = tested on: OVCAR-4 ovarian
# SK-MEL-2 melanoma = tested on: SK-MEL-2 melanoma
# KM12 colon = tested on: KM12 colon
# RPMI-8226 leukemia = tested on: RPMI-8226 leukemia
# PC-3 prostate = tested on: PC-3 prostate
# HCT-116 colon = tested on: HCT-116 colon
# UO-31 renal = tested on: UO-31 renal
# MDA-MB-231 breast = tested on: MDA-MB-231 breast
# CAKI-1 renal = tested on: CAKI-1 renal
# CCRF-CEM leukemia = tested on: CCRF-CEM leukemia
# NCI/ADR-RES ovarian = tested on: NCI/ADR-RES ovarian
# SW-620 colon = tested on: SW-620 colon
# HCT-15 colon = tested on: HCT-15 colon
# TK-10 renal = tested on: TK-10 renal
# MDA-MB-435 = tested on: MDA-MB-435
# SK-OV-3 ovarian = tested on: SK-OV-3 ovarian
# SK-MEL-28 melanoma = tested on: SK-MEL-28 melanoma
# BT-549 breast = tested on: BT-549 breast
# OVCAR-8 ovarian = tested on: OVCAR-8 ovarian
# HCC-2998 colon = tested on: HCC-2998 colon
# A549 NSCLC = tested on: A549 NSCLC
# LOX IMVI melanoma = tested on: LOX IMVI melanoma
# DU-145 prostate = tested on: DU-145 prostate
# SR leukemia = tested on: SR leukemia
# MOLT-4 leukemia = tested on: MOLT-4 leukemia
# OVCAR-3 ovarian = tested on: OVCAR-3 ovarian
# ACHN renal = tested on: ACHN renal
# SNB-19 CNS = tested on: SNB-19 CNS
# UACC-257 melanoma = tested on: UACC-257 melanoma
# HOP-92 NSCLC = tested on: HOP-92 NSCLC
# HS 578T breast = tested on: HS 578T breast
# HL-60(TB) leukemia = tested on: HL-60(TB) leukemia
# K-562 leukemia = tested on: K-562 leukemia
# HOP-62 NSCLC = tested on: HOP-62 NSCLC
# NCI-H460 lung = tested on: NCI-H460 lung
# NCI-H23 lung = tested on: NCI-H23 lung
# COLO 205 colon = tested on: COLO 205 colon
# T-47D breast = tested on: T-47D breast
# M14 melanoma = tested on: M14 melanoma
# 786-0 renal = tested on: 786-0 renal
# HT29 colon = tested on: HT29 colon
# SF-268 CNS = tested on: SF-268 CNS
# MALME-3M melanoma = tested on: MALME-3M melanoma
smiles,measurement,setting,value
CCOC(=O)c1c(C)nc2c3ccccc3c(C#N)c(C)n12,TGI,SF-539 CNS,> 100 µM
same,TGI,NCI-H522 lung,89.3 µM
same,TGI,A498 renal,> 100 µM
same,TGI,EKVX NSCLC,> 100 µM
same,TGI,MCF7 breast,> 100 µM
same,TGI,NCI-H226 lung,> 100 µM
same,TGI,SNB-75 CNS,75.8 µM
same,TGI,U251 CNS,> 100 µM
same,TGI,SF-295 CNS,> 100 µM
same,TGI,OVCAR-5 ovarian,> 100 µM
same,TGI,UACC-62 melanoma,> 100 µM
same,TGI,IGROV1 ovarian,> 100 µM
same,TGI,SK-MEL-5 melanoma,> 100 µM
same,TGI,RXF 393 renal,> 100 µM
same,TGI,SN12C renal,> 100 µM
same,TGI,OVCAR-4 ovarian,> 100 µM
same,TGI,SK-MEL-2 melanoma,> 100 µM
same,TGI,KM12 colon,> 100 µM
same,TGI,RPMI-8226 leukemia,> 100 µM
same,TGI,PC-3 prostate,> 100 µM
same,TGI,HCT-116 colon,> 100 µM
same,TGI,UO-31 renal,> 100 µM
same,TGI,MDA-MB-231 breast,46.5 µM
same,TGI,CAKI-1 renal,> 100 µM
same,TGI,CCRF-CEM leukemia,> 100 µM
same,TGI,NCI/ADR-RES ovarian,> 100 µM
same,TGI,SW-620 colon,> 100 µM
same,TGI,HCT-15 colon,> 100 µM
same,TGI,TK-10 renal,> 100 µM
same,TGI,MDA-MB-435,> 100 µM
same,TGI,SK-OV-3 ovarian,51.3 µM
same,TGI,SK-MEL-28 melanoma,> 100 µM
same,TGI,BT-549 breast,> 100 µM
same,TGI,OVCAR-8 ovarian,> 100 µM
same,TGI,HCC-2998 colon,> 100 µM
same,TGI,A549 NSCLC,> 100 µM
same,TGI,LOX IMVI melanoma,> 100 µM
same,TGI,DU-145 prostate,> 100 µM
same,TGI,SR leukemia,> 100 µM
same,TGI,MOLT-4 leukemia,> 100 µM
same,TGI,OVCAR-3 ovarian,> 100 µM
same,TGI,ACHN renal,> 100 µM
same,TGI,SNB-19 CNS,> 100 µM
same,TGI,UACC-257 melanoma,> 100 µM
same,TGI,HOP-92 NSCLC,> 100 µM
same,TGI,HS 578T breast,> 100 µM
same,TGI,HL-60(TB) leukemia,> 100 µM
same,TGI,K-562 leukemia,> 100 µM
same,TGI,HOP-62 NSCLC,70.7 µM
same,TGI,NCI-H460 lung,> 100 µM
O=C(/C=C/c1ccncc1)c1cc(Cl)ccc1O,GI50,SF-539 CNS,18 µM
same,TGI,SF-539 CNS,41.9 µM
same,GI50,NCI-H23 lung,17.2 µM
same,TGI,NCI-H23 lung,38.8 µM
same,GI50,NCI-H522 lung,14.1 µM
same,TGI,NCI-H522 lung,29.6 µM
same,GI50,A498 renal,6.96 µM
same,TGI,A498 renal,21.8 µM
same,GI50,EKVX NSCLC,17.2 µM
same,TGI,EKVX NSCLC,54.5 µM
same,GI50,COLO 205 colon,16.8 µM
same,TGI,COLO 205 colon,32.3 µM
same,GI50,MCF7 breast,13.1 µM
same,TGI,MCF7 breast,27.7 µM
same,GI50,T-47D breast,18.8 µM
same,TGI,T-47D breast,53.1 µM
same,GI50,NCI-H226 lung,22.7 µM
same,TGI,NCI-H226 lung,58 µM
same,GI50,SNB-75 CNS,17.5 µM
same,TGI,SNB-75 CNS,32.2 µM
same,GI50,U251 CNS,12.7 µM
same,TGI,U251 CNS,26.2 µM
same,GI50,SF-295 CNS,15.3 µM
same,TGI,SF-295 CNS,34.8 µM
same,GI50,OVCAR-5 ovarian,24 µM
same,TGI,OVCAR-5 ovarian,50.7 µM
same,GI50,UACC-62 melanoma,15.9 µM
same,TGI,UACC-62 melanoma,37.3 µM
same,GI50,IGROV1 ovarian,15 µM
same,TGI,IGROV1 ovarian,38.5 µM
same,GI50,SK-MEL-5 melanoma,19.2 µM
same,TGI,SK-MEL-5 melanoma,34.4 µM
same,GI50,RXF 393 renal,18.3 µM
same,TGI,RXF 393 renal,33.1 µM
same,GI50,SN12C renal,23.4 µM
same,TGI,SN12C renal,68.4 µM
same,GI50,OVCAR-4 ovarian,27.3 µM
same,TGI,OVCAR-4 ovarian,88.1 µM
same,GI50,SK-MEL-2 melanoma,19.7 µM
same,TGI,SK-MEL-2 melanoma,37.8 µM
same,GI50,KM12 colon,15.7 µM
same,TGI,KM12 colon,32.5 µM
same,GI50,M14 melanoma,17.5 µM
same,TGI,M14 melanoma,34.1 µM
same,GI50,RPMI-8226 leukemia,2.34 µM
same,TGI,RPMI-8226 leukemia,5.25 µM
same,GI50,PC-3 prostate,14.8 µM
same,TGI,PC-3 prostate,33.6 µM
same,GI50,HCT-116 colon,14.6 µM
same,TGI,HCT-116 colon,27.9 µM
same,GI50,786-0 renal,17.9 µM
same,TGI,786-0 renal,34.1 µM
same,GI50,UO-31 renal,11 µM
same,TGI,UO-31 renal,26.7 µM
same,GI50,MDA-MB-231 breast,18.6 µM
same,TGI,MDA-MB-231 breast,42.3 µM
same,GI50,CAKI-1 renal,14.3 µM
same,TGI,CAKI-1 renal,38.5 µM
same,GI50,CCRF-CEM leukemia,7.95 µM
same,TGI,CCRF-CEM leukemia,36.2 µM
same,GI50,NCI/ADR-RES ovarian,22.7 µM
same,TGI,NCI/ADR-RES ovarian,66.4 µM
same,GI50,SW-620 colon,12.5 µM
same,TGI,SW-620 colon,30.5 µM
same,GI50,HT29 colon,14.1 µM
same,TGI,HT29 colon,29.7 µM
same,GI50,HCT-15 colon,22.4 µM
same,TGI,HCT-15 colon,63.8 µM
same,GI50,MDA-MB-435,17.1 µM
same,TGI,MDA-MB-435,41 µM
same,GI50,SK-OV-3 ovarian,27.4 µM
same,TGI,SK-OV-3 ovarian,87.7 µM
same,GI50,SK-MEL-28 melanoma,22.6 µM
same,TGI,SK-MEL-28 melanoma,47.5 µM
same,GI50,BT-549 breast,16.6 µM
same,TGI,BT-549 breast,31.1 µM
same,GI50,OVCAR-8 ovarian,23.6 µM
same,TGI,OVCAR-8 ovarian,57 µM
same,GI50,HCC-2998 colon,13.5 µM
same,TGI,HCC-2998 colon,28.4 µM
same,GI50,A549 NSCLC,23 µM
same,TGI,A549 NSCLC,53.2 µM
same,GI50,LOX IMVI melanoma,13.2 µM
same,TGI,LOX IMVI melanoma,29.2 µM
same,GI50,DU-145 prostate,17.4 µM
same,TGI,DU-145 prostate,31.5 µM
same,GI50,SF-268 CNS,22.1 µM
same,TGI,SF-268 CNS,63.7 µM
same,GI50,OVCAR-3 ovarian,17.3 µM
same,TGI,OVCAR-3 ovarian,32.9 µM
same,GI50,ACHN renal,23.9 µM
same,TGI,ACHN renal,60 µM
same,GI50,SNB-19 CNS,17.7 µM
same,TGI,SNB-19 CNS,40.2 µM
same,GI50,UACC-257 melanoma,22.2 µM
same,TGI,UACC-257 melanoma,49.7 µM
same,GI50,HOP-92 NSCLC,4.65 µM
same,TGI,HOP-92 NSCLC,19.6 µM
same,GI50,HS 578T breast,39.5 µM
same,TGI,HS 578T breast,> 100 µM
same,GI50,MALME-3M melanoma,19.7 µM
same,TGI,MALME-3M melanoma,45.5 µM
same,GI50,HOP-62 NSCLC,18.3 µM
same,TGI,HOP-62 NSCLC,43.8 µM
same,GI50,NCI-H460 lung,15.5 µM
same,TGI,NCI-H460 lung,34.7 µM
